In patent US20090247472A1, “TYPE 1, 4-NAPHTOQUINONE COMPOUNDS, COMPOSITIONS COMPRISING THEM AND USE OF THESE COMPOUNDS AS ANTI-CANCER AGENTS” (FLUOFARMA, priority 2006, published 2009):

Assays:
Type in all cases: cell-based
cells [1] = experiment: Sub-G1 apoptosis test (DNA fragmentation, fluorescent DNA intercalator), Example 60; settings: for Activity (sub-Gl): apoptosis, DNA fragmentation by fluorescence; for pro-apoptotic activity (in words): conclusion from the tests of Example 60
Protocol: The biological tests on activity (Sub-G1) relate to measurement of apoptosis. For this purpose, a fluorescent tracer, a DNA intercalator, makes it possible to display the fragmentation of the DNA. This fragmentation of the DNA results from the induction of the apoptotic phenomenon in the cells. The cells are incubated in the presence of various concentrations of the compounds presented above. The measurement of the apoptosis in the cells is monitored by measuring the fluorescence, thus making it possible to determine the activity of the compounds in […]. The activity tests (sub-G1) on certain compounds are presented below.

cells [2] = experiment: Cell proliferation by multiplexed flow cytometry (dilution of a fluorescent tracer), Example 61
Protocol: (§1) The activities are measured by multiplexed flow cytometry tests, by coupling the measurement of apoptosis and cell proliferation. The cell proliferation is measured by monitoring the dilution of a specific fluorescent tracer during the cell divisions: • the cells are incubated in the presence of several concentrations of compounds, then • the measurements of apoptosis and cell proliferation are made simultaneously by the flow cytometry technique; specimen dose/response curves for the action of the compounds on apoptosis and on cell proliferation are obtained.

cells [3] = experiment: Apoptosis (sub-G1) by multiplexed flow cytometry, Example 61
Protocol: as §1

[4] = conclusion from the tests of Example 61

Row | SMILES | Activity (sub-Gl) (cells [1]) [µM] | pro-apoptotic activity (in words) (cells [1]) | Activity (prolif at 24 h) (cells [2]; cell proliferation at 24 h, flow cytometry) [µM] | anti-proliferative activity (in words) (cells [2]; [4]) | Activity (sub-Gl) (cells [3]; apoptosis, multiplexed flow cytometry) [µM] | pro-apoptotic activity (in words) (cells [3]; [4])
1 | CC1=C(CNC(=O)C(C)N)C(=O)c2ccccc2C1=O.Cl [Example 17, 2-methyl-3-(L-alaninyl-aminomethyl)-1,4-naphthoquinone chlorhydrate] | 13.3 | pro-apoptotic activity |  |  |  | 
2 | CC1=C(CCNC(=O)CN)C(=O)c2ccccc2C1=O.Cl [Example 26, 2-methyl-3-(glycinyl-aminoethyl)-1,4-naphthoquinone chlorohydrate] |  |  | 12.3 | anti-proliferative activity | 11.8 | pro-apoptotic
3 | CC1=C(CNC(=O)C(N)C(C)C)C(=O)c2ccccc2C1=O.Cl [Example 19, 2-methyl-3-(D-valinyl-aminomethyl)-1,4-naphthoquinone chlorhydrate] | 12 | pro-apoptotic activity |  |  |  | 
4 | CC1=C(CNC(=O)C(N)CO)C(=O)c2ccccc2C1=O.Cl [Example 18, 2-methyl-3-(L-serinyl-aminomethyl)-1,4-naphthoquinone chlorhydrate] | 11.8 | pro-apoptotic activity |  |  |  | 
5 | CC1=C(CNC(=O)C(N)C(C)O)C(=O)c2ccccc2C1=O [Example 20, 2-methyl-3-(L-threoninyl-aminomethyl)-1,4-naphthoquinone chlorohydrate] | 12.2 | pro-apoptotic activity |  |  |  | 
